This is an account of results in patent US9737587B2, “Treatment of autism spectrum disorders with ciliary neurotrophic factor peptide mimetic” (The Research Foundation for Mental Hygiene, Inc., priority 2014, dated 2017).

The test system of one data set is mice or rats. The settings on record: in vivo.
In a further data set the test system is human. The settings on record: human clinical trials; cited from earlier work.

No end group written: not given here. Where only a bound is given, the exact number is not on record here.

As a reminder, the half-life is how long it takes for the measured level to halve. Higher therefore signals slow loss.

For the molecule VGDGGLFEKKL [Peptide P6, VGDGGLFEKKL], the “adverse effects associated with the full-length protein (CNTF)” value in the data set on mice or rats is “does not cause adverse effects associated with the full-length protein”. Further, the half-life in the data set “in vivo” is greater than 6 h.

B1: recombinant CNTF: recombinant full-length ciliary neurotrophic factor (protein, UniProt P26441 1-200, looked up)
chain: MAFTEHSPLTPHRRDLCSRSIWLARKIRSDLTALTESYVKHQGLNKNINLDSADGMPVASTDQWSELTEAERLQENLQAYRTFHVLLARLLEDQQVHFTPTEGDFHQAIHTLLLQVAAFAYQIEELMILLEYKIPRNEADGMPINVGDGGLFEKKLWGLKVLQELSQWTVRSIHDLRFISSHQTGIPARGSHYIANNKKM
modifications: full-length
notes: recombinant full-length ciliary neurotrophic factor
Take B1: in the data set with human, the adverse effects entry is “anorexia, skeletal muscle loss, hyperalgesia, severe cramps, and muscle pain”.
